From ChEMBL document CHEMBL3091438, “Discovery and characterisation of hydrazines as inhibitors of the immune suppressive enzyme, indoleamine 2,3-dioxygenase 1 (IDO1)” (Bioorg Med Chem, 2013)

Columns and labels:
[1] = target: T1, Indoleamine 2,3-dioxygenase 1 (Homo sapiens, UniProt P14902); experiment: Inhibition of recombinant human IDO1 expressed in Escherichia coli EC538 using L-tryptophan as substrate after 1 hr
Target sequence in this assay (P14902 whole entry): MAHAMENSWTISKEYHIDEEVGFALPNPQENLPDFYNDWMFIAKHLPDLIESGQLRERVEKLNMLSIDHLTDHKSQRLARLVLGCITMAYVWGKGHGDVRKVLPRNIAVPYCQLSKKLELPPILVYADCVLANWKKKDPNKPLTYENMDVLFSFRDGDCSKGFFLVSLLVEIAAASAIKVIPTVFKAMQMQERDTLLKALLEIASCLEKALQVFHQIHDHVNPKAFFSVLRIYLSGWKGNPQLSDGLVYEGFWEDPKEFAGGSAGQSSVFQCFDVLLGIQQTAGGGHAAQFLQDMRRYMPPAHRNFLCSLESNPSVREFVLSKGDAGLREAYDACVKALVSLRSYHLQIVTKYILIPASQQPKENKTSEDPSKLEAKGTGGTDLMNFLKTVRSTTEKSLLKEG

[2] = target: T1, Indoleamine 2,3-dioxygenase 1; experiment: Inhibition of recombinant human IDO1 expressed in Escherichia coli EC538 using L-tryptophan as substrate at 0.1 mM after 1 hr relative to control
Target sequence in this assay (P14902 whole entry, looked up): as the sequence (P14902 whole entry) above

[3] = Cytotoxicity against mouse LLTC cells at IC50 by MTT assay; assay type: cell-based
[4] = target: Indoleamine 2,3-dioxygenase 1 (Mus musculus, UniProt P28776); experiment: Inhibition of mouse IDO1 expressed in mouse LLTC cells using L-tryptophan as substrate after 24 hrs; assay type: cell-based
Chain of Indoleamine 2,3-dioxygenase 1 (Mus musculus, UniProt P28776) (P28776 whole entry): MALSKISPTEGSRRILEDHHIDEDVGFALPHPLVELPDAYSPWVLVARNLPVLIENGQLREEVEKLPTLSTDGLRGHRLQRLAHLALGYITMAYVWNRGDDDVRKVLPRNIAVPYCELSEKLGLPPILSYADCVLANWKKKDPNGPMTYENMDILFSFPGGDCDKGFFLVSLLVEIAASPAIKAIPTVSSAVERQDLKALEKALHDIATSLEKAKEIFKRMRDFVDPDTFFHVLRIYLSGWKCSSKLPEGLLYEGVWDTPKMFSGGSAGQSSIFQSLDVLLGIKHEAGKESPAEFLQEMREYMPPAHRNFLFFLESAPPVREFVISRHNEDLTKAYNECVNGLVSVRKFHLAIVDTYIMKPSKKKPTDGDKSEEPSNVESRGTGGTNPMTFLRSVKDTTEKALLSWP

[5] = target: T1, Indoleamine 2,3-dioxygenase 1; experiment: Inhibition of human IDO1 expressed in mouse LLTC cells using L-tryptophan as substrate after 24 hrs; assay type: cell-based
Target sequence in this assay (P14902 whole entry): as the sequence (P14902 whole entry) above

[6] = target: T1, Indoleamine 2,3-dioxygenase 1; experiment: Ratio of 2-hydrazinobenzothiazole IC50 to compound IC50 for recombinant human IDO1
Target sequence in this assay (P14902 whole entry, looked up): as the sequence (P14902 whole entry) above

Row | SMILES | IC50 [1] | inhibition [2] | further results
1 | c1ccc2scnc2c1 [BENZO[D]THIAZOLE] | 652 µM |  | 
2 | c1ccc2sc(SSc3nc4ccccc4s3)nc2c1 [BENZOTHIAZYL DISULFIDE] | > 500 µM |  | 
3 | NNC(=O)c1ccc2nc(NN)sc2c1 |  | -1% | 
4 | Cc1ccc2nc(NN)sc2c1 |  | 37% | 
5 | NNc1nc2ccccc2s1 | 8 µM | 91% | Activity [3]: Non-toxic; IC50 [4]: 50.5 µM; IC50 [5]: 62.3 µM
6 | Nc1nc2ccc([N+](=O)[O-])cc2s1 | > 500 µM |  | 
7 | NNc1nc2cc(C(F)(F)F)ccc2s1 |  | 46% | 
8 | O=C(O)/C=N/Nc1nc2ccccc2s1 |  | 13% | 
9 | NNc1nc2cc(Cl)ccc2s1 | 1.5 µM | 86% | 
10 | N#CCCN(N)c1nc2ccccc2s1 |  | 2% | 
11 | NNc1ccccc1 [PHENYLHYDRAZINE] | 0.25 µM |  | Ratio IC50 [6]: 32; Activity [3]: Non-toxic; IC50 [4]: 0.2 µM; IC50 [5]: 1.3 µM
12 | CC(C)=NNc1nc2ccccc2s1 |  | 30% | 
13 | Sc1nc2ccccc2s1 [2-MERCAPTOBENZOTHIAZOLE] | 126 µM |  | 
